Experimental data from ChEMBL document CHEMBL1201862, “PubChem BioAssay data set” (2004).
The source made the active and inactive calls.

Assays:
Cytochrome P450 2D6 = Cytochrome P450 2D6 (Homo sapiens, UniProt P10635);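 further: CYP2D6 member of a cytochrome P450 panel assay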
cells = type: functional, cell-based; settings: HEK-CNG
Cytochrome P450 2C9 = Cytochrome P450 2C9 (Homo sapiens, UniProt P11712)
Galanin receptor type 3 = Galanin receptor type 3 (Homo sapiens, UniProt O60755); assay: Fluorescence-based cell-based primary high throughput dose response assay to identify antagonists of the Galanin Receptor 3 (GalR3).; type: functional
Kallikrein-7 = Kallikrein-7 (Homo sapiens, UniProt P49862); assay: Fluorescence Intensity-based biochemical primary high throughput dose response assay to identify activators of kallikrein-7 (K7) zymogen.
[1] = biological target: T1, Sentrin-specific protease 8 (Homo sapiens, UniProt Q96LD8); type: functional
T1 sequence (Q96LD8 whole entry): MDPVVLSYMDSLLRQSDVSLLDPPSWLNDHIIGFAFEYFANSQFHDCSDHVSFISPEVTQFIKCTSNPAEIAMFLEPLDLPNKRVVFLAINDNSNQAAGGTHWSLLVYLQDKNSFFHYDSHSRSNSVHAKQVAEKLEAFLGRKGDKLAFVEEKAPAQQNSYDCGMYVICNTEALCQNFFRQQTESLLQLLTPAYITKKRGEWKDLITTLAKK

[2] = biological target: T1, Sentrin-specific protease 8; type: functional; remark: listed apart in the source
fMet-Leu-Phe receptor = fMet-Leu-Phe receptor (Homo sapiens, UniProt P21462); assay: FPR ligands, dose response (AID 519); type: functional
[3] = biological target: Nuclear receptor subfamily 5 group A member 2 (Homo sapiens, UniProt O00482); type: functional, cell-based;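 further: HEK293T cells transfected with LRH-1 and a StAR promoter luciferase reporter; potency for inhibitors that lower LRH-1 driven reporter light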
Steroidogenic factor 1 = Steroidogenic factor 1 (Homo sapiens, UniProt Q13285); assay: Counterscreen for inverse agonists of the liver receptor homolog-1 (LRH-1; NR5A2): Luminescence-based cell-based high throughput dose response assay to identify inverse agonists of the Steroidogenic Factor 1 Nuclear Receptor (SF1; NR5A1).; type: functional
[4] = StAR promoter reporter inhibition counter-screen, dose response, counter-screen for LRH-1 inverse agonist project, cell-based, luminescence, luciferase reporter (AID 651969); type: functional
[5] = HEK293T cell cytotoxicity, dose response, cytotoxicity control for HIV Vif inhibitor project, cherry-picks (AID 652208); type: functional, cell-based
INS1 = assay: beta cell apoptosis inhibitors, cytokine rescue, dose response, luminescence, retest (AID 449756); type: functional, cell-based; settings: Rattus norvegicus;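 further: cell death triggered by IL-1 beta plus TNF-alpha plus IFN-gamma mixture; protective hits raise ATP signal compared with cytokine alone wells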
[6] = cytotoxicity in HEK-293T cells, dose response, cytotoxicity control for TCR NF-kB inhibitor project, luminescence, T-cell screen hits (AID 489026); type: functional, cell-based;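 further: cells exposed to compound about 14 hours before the viability readout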
[7] = biological target: COUP transcription factor 2 (Homo sapiens, UniProt P24468); assay: Luminescence-based cell-based high throughput dose response assay to identify inhibitors of COUP-TFII (NR2F2).; type: functional;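 further: HEK293 cells transiently cotransfected with COUP-TFII expression vector and reporter; luciferase reporter luminescence driven by COUP-TFII from the pX2-168 reporter plasmid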
COUP transcription factor 2, sequence (P24468 whole entry): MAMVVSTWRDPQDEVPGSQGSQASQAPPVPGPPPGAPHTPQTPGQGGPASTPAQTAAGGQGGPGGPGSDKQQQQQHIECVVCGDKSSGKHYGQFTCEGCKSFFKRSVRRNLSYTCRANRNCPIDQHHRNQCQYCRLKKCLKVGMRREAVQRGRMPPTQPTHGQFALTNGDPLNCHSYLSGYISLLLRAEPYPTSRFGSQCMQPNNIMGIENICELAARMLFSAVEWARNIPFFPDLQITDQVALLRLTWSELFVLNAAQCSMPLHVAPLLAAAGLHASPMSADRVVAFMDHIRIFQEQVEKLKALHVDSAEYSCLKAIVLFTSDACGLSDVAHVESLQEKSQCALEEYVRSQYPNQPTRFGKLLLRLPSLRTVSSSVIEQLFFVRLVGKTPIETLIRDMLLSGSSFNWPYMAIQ

Galanin receptor type 3, sequence (O60755 whole entry): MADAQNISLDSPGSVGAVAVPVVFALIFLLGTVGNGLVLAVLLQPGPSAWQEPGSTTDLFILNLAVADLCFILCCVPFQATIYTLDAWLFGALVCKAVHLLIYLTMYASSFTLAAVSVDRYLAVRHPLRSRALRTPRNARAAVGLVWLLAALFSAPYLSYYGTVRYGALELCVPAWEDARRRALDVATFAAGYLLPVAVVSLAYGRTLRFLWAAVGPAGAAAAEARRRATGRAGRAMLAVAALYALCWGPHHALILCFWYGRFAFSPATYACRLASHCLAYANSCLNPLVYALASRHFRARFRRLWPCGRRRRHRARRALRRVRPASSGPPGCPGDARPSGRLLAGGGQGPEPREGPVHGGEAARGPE
fMet-Leu-Phe receptor, sequence (P21462 whole entry): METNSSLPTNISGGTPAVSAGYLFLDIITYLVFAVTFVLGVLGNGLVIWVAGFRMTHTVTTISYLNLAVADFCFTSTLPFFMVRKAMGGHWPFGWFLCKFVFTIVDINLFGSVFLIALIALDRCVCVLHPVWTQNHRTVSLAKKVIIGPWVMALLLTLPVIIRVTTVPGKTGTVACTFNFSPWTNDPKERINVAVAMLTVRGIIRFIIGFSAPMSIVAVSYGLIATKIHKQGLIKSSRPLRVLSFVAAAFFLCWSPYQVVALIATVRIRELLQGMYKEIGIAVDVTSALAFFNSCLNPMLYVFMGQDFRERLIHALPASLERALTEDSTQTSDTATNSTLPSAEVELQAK
Cytochrome P450 2C9, sequence (P11712 whole entry): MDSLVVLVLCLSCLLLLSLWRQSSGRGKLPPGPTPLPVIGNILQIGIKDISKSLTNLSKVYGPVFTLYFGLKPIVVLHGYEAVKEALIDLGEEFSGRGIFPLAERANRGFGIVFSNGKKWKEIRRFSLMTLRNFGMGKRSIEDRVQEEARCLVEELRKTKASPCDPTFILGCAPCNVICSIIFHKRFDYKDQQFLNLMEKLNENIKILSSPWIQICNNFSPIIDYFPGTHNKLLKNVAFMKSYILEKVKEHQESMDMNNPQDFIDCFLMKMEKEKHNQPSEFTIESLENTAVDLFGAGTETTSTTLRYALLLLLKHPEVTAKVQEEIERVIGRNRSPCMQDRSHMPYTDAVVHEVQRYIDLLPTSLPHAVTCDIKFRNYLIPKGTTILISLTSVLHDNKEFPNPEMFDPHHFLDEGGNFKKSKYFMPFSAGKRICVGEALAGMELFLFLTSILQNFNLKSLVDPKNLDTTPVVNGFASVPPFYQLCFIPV
Cytochrome P450 2D6, sequence (P10635 whole entry): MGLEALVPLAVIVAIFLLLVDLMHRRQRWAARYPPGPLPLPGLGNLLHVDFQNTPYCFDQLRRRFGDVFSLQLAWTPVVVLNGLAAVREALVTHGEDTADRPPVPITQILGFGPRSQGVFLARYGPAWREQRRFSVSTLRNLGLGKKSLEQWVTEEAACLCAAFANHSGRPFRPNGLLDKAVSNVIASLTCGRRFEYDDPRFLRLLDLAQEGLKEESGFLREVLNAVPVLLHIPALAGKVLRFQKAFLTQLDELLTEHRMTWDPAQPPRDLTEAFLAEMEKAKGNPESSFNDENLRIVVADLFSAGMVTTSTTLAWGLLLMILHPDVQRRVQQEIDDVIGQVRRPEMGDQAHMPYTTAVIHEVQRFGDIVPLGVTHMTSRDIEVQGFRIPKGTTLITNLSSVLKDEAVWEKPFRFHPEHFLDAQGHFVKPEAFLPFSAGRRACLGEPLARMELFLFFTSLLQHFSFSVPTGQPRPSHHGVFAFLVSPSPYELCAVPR
Nuclear receptor subfamily 5 group A member 2, sequence (O00482 whole entry): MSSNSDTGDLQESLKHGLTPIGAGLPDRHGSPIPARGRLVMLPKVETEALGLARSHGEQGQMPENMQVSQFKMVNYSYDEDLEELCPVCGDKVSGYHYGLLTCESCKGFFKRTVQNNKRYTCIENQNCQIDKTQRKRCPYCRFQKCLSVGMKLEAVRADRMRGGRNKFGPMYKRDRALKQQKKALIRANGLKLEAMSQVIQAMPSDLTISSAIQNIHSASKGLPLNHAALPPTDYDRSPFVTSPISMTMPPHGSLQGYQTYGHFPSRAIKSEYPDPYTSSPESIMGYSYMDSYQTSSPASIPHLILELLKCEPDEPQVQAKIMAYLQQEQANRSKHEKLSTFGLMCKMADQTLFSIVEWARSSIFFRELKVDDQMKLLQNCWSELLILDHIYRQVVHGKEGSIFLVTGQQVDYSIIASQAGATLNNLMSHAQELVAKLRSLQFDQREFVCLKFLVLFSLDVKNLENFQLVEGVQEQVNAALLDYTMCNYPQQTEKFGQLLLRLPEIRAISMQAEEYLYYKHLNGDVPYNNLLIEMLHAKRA
Steroidogenic factor 1, sequence (Q13285 whole entry): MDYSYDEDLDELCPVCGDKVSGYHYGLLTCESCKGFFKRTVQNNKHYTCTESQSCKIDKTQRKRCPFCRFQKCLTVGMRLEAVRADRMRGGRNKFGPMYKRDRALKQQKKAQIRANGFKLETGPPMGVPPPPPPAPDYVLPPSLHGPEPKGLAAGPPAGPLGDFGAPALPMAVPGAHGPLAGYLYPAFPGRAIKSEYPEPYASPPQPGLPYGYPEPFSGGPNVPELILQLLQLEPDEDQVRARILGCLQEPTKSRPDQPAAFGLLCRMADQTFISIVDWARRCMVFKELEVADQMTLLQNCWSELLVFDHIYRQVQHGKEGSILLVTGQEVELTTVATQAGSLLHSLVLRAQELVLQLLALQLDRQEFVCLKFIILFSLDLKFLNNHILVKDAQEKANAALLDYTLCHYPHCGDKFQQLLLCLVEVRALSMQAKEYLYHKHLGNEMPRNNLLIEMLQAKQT
Kallikrein-7, sequence (P49862 whole entry): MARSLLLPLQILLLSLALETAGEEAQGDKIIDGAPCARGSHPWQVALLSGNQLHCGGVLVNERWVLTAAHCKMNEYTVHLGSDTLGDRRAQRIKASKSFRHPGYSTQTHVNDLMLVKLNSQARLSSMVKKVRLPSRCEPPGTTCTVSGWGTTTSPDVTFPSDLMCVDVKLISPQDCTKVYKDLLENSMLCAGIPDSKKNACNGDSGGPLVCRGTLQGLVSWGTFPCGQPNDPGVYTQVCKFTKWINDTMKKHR

Q: With `Cc1nc2sc(C#N)c(N)c2c2c1CCCC2` as the compound, how does the AC50 (Cytochrome P450 2D6) read?
A: 0.398 µM (inconclusive)

Q: And the EC50 (cells)?
A: > 29.9 µM (inactive)

Q: What about the AC50 (Cytochrome P450 2C9) of the same compound?
A: inconclusive

Q: What about the IC50 (Galanin receptor type 3) of the same compound?
A: > 29.9 µM (inactive)

Q: For `O=C(NCCCN1CCCC1=O)c1cc2nc(-c3ccco3)cc(C(F)(F)F)n2n1`, which EC50 (Kallikrein-7) is on record?
A: > 69.5 µM (inactive)

Q: With `O=C(COC(=O)c1cc(S(=O)(=O)N2CCc3ccccc3C2)ccc1Cl)NCc1ccco1` as the compound, how does the IC50 [1] read?
A: > 100 µM (inactive)

Q: And the IC50 [2]?
A: 12.4 µM (active)

Q: Which Ki (fMet-Leu-Phe receptor) does the source give for `COc1ccc(-c2nc(N3CCCC3)[nH]c(=O)c2C#N)cc1` here?
A: > 66.7 µM (inactive)

Q: With `CN(C)S(=O)(=O)c1cccc(C(=O)OCC(=O)Nc2ccc3c(c2)OCCO3)c1` as the compound, how does the IC50 [3] read?
A: 90.5 µM (inactive)

Q: What about the IC50 (Steroidogenic factor 1) of the same compound?
A: 3.18 µM (active)

Q: What about the IC50 [4] of the same compound?
A: 35.9 µM (inactive)

Q: For `Cc1cc(NC(=O)CSc2nnc(Cn3c(=O)sc4ccccc43)n2-c2ccccc2C)no1`, which Ki (fMet-Leu-Phe receptor) is on record?
A: > 66.7 µM (inactive)

Q: With `COC(=O)c1ccc2c(=O)n(Cc3ccco3)c(SCC(=O)Nc3cc(C)on3)nc2c1` as the compound, how does the AC50 [5] read?
A: 35.7 µM (active)

Q: For `O=C(CSc1nnc(Cn2nnc3ccccc32)o1)N(Cc1ccc(F)cc1)c1ccccc1`, which AC50 (INS1) is on record?
A: 4.43 µM (active)

Q: And the EC50 (cells)?
A: > 29.9 µM (inactive)

Q: And the IC50 [6]?
A: > 80 µM (inactive)

Q: What about the IC50 [7] of the same compound?
A: 4.87 µM (active)

Q: What about the IC50 (Galanin receptor type 3) of the same compound?
A: 1.24 µM (active)
